The values below come from US9394338B2, “Glutathione analogs and uses thereof” (REGENTS OF THE UNIVERSITY OF MINNESOTA, priority 2011, dated 2016).

Assay [1] relates to APP/PS1 mice. Kind of assay: Immunohistochemistry of Aβ plaques in brain. In kind it is in vivo. Here is the method:
(§1) Efficacy Study Design. To determine the effect of intraperitoneal and oral Ψ-GSH treatment, the study was divided in four groups (10 mice/group). 1. APP/PS1 mice-vehicle control, 2. APP/PS1 mice-Ψ-GSH i.p. 500 mg/kg, 3. APP/PS1 mice-Ψ-GSH oral 500 mg/kg, 4. Non-transgenic wild type mice-vehicle control. All the animals in the above-said groups were treated with saline or Ψ-GSH three times a week for 12 weeks, starting at the age of three to four months. Eleven weeks after the start of the treatment, the animals were tested in the Morris water maze, and twelve weeks after the start of the treatment, the animals were sacrificed for histopathological analysis.
Immunohistochemistry. Mice were anesthetized, and their brains were removed, cut sagittaly. Following post-fixation of right hemisphere in Zamboni's fixative (4% paraformaldehyde and 15% picric acid in 0.25 M sodium phosphate, pH 7.5) for 48 h before being cryopreserved in a 30% (wt/vol) sucrose in phosphate-buffered saline solution. Brains were then were embedded in O.C.T. Tissue Tek Compound (Miles Scientific) and were cryosectioned at 10 μm thickness for immunohistochemistry, mounted on Superfrost™ microscope slides (Erie Scientific, Portsmouth N.H.) and stored at […] until their utilization.
The brain sections were stained with a primary antibody against 0-amyloid peptide (Cell signaling, Cat. #2454) at a dilution of 1:200 in PBS. […]

Assay [2] relates to APP/PS1 mice. Briefly: Brain protein carbonyl determination. In kind it is in vivo. Here is the method:
as §1
Protein Carbonyl Determination. Brains were homogenized in cold buffer (50 mM phosphate, pH 7.0, containing 1 mM EDTA containing protease inhibitors) and centrifuged at 10,000×g for 15 min at 4° C. The supernantent was mixed with 0.5 ml of 10 mM 2,4-dinitrophenylhydrazine (DNPH)/2 M HCL (or 2 M HCl alone for blanks). Samples were placed in a sample holder and incubated in the dark at room temperature for one hour vortexing intermittently. […] The concentration of DNPH was determined at its maximum wavelength (360 nm) and the molar absorption coefficient of 22,000 M^−1 cm^−1 was used to quantify the levels of protein carbonyls. Total protein concentration was determined by BCA protein assay kit (Pierce, Rockford, Ill.). […]

Assay [3] concerns APP/PS1 mice. Kind of assay: Morris water maze. In kind it is in vivo. The following applies: for escape latency, hidden platform: 500 mg/Kg i.p. 3×/week. Here is the method: as §1
Behavior Study. Eleven weeks after the beginning of the treatment, the animals were tested for one week in an open field water maze. The maze consists of a white circular tank (120 cm diameter) of water (23±1° C.) rendered opaque with nontoxic crayola paint. The mice were placed in the water at the edge of the pool and allowed to swim in order to locate a hidden, but fixed escape platform, using extra-maze cues.
On Day 1, the mice were be placed in the pool and allowed to swim freely for 60 s. If an animal could not locate the hidden platform within that time, it was placed manually upon the platform and left there for 10 s. Each animal was tested in four trials per day. The inter-trial interval was 15 min. Each start position was used equally in a pseudorandom order, and the animals were always placed in the water facing the wall. The platform was placed in the middle of northeast quadrant of the pool (approximately 30 cm from the side of the pool). The mouse's task throughout the experiment was to find and climb onto the platform, escaping the water. Once the mouse learned the task (Day 4, Trial 16), a probe trial was conducted 24 hours after the last trial of acquisition on Day 4.
In the probe trial (i.e., Trial 17, day 5), the platform was removed from the pool and animals were allowed to swim for 60 s. Their ability to remember the location of the previously present escape platform was quantified in proportion to the residence time of the mouse in the quadrant previously containing the platform. Immediately following the probe trial, visible platform was reintroduced at a different location (i.e southeast quadrant) along with a visible flag. Mice were trained to locate this cued platform in 4 trials conducted in the aforementioned manner.

A further assay concerns GSH uptake transporters. Kind of assay: Inhibition of [3H]-GSH uptake. The format is cell-based, human. The following applies: 100 nM [3H]-GSH; 1 μM, 100 nM and 10 nM compound. Here is the method:
Inhibition of Glutathione Uptake by Ψ-GS. The uptake experiment was performed under conditions described previously. Briefly, the cells were seeded in 24-well plates. After an overnight incubation, the cells were treated with 100 nM concentration of [^3H]-GSH in uptake buffer (128 mM NaCl, 4.73 mM KCl, 1.25 mM CaCl2, 1.25 mM MgSO4, and 5 mM HEPES, pH =7.4) in the presence or absence of Ψ-GSH at concentrations of 10, 100 and 1000 nM at 37° C. under 5% CO2 for 30 min. At the end of incubation, the cellular uptake was terminated by washing three times with ice-cold PBS. Any remaining buffer was aspirated, and the cells were lysed with 1 ml of warm 0.1% SDS/0.1 N NaOH solution for a minimum of 45 min. Intracellular levels of radioactive GSH were determined using liquid scintillation counting. All resulting levels of GSH uptake were normalized to the total protein in each well using a BCA protein assay. All uptake experiments were performed in triplicate and statistically significant differences in uptake were evaluated using Graphpad Prism 5.1 (Graphpad, La Jolla, Calif.) using a one-way ANOVA followed by a Dunnett's post hoc test with a false discovery rate of 0.05.

For `N[C@@H](CNC(=O)N[C@@H](CS)C(=O)NCC(=O)O)C(=O)O` [Ψ-GSH, γ-Gla-Cys-Gly-OH], the “number and size of Aβ plaques” value in the assay with APP/PS1 mice [1] (i.p.) is “drastically reduced”. Moreover, the “Aβ plaques relative to controls” value in the assay with APP/PS1 mice [1] (oral) is reported as “modest decrease”. Also, the “Protein carbonyls in brain (WT saline = 100%)” value in the assay with APP/PS1 mice [2] (i.p.) is given as 97.8±6.30%. The “levels of protein carbonylation” value in the assay with APP/PS1 mice [2] (oral) is given as “unaffected”. Further, the “escape latency, hidden platform” value amounted to 17.91 ± 4.65 s in the assay on APP/PS1 mice [3] (APP-PS1 mice, day 3 of training) and 14.64 ± 2.61 s with APP/PS1 mice [3] (APP-PS1 mice, day 4 of training). The “time in the target quadrant, probe trial” value with APP/PS1 mice [3] (APP-PS1 mice, i.p., 24 h after training) is 38.43±3.73%; with APP/PS1 mice [3] (APP/PS1 mice, oral), 21.76±5.36%. This compound also returned a path length in the assay with APP/PS1 mice [3] (APP-PS1 mice, i.p., last day of training) of 2.69±0.47 m. The “Path lengths vs saline-treated controls” value with APP/PS1 mice [3] (APP-PS1 mice, oral) was “insignificantly different”. Besides, the “escape latency, visible platform” value in the assay on APP/PS1 mice [3] (APP/PS1 mice, i.p., end of four trials) was found to be 6.75 ± 1.49 s. The “spatial memory development and escape latencies vs saline-treated group” value in the assay on APP/PS1 mice [3] (APP/PS1 mice, oral 3×/week for 3 months, significant (p<0.05) on day 2 only) was “Trends toward higher spatial memory development and lower escape latencies”. The “[3H]-GSH uptake by SH-SY-5Y cells” value with GSH uptake transporters is given as “inhibited in a dose-dependent manner”.
